Experimental data published in patent US11643405B2, “Compound for treatment or prevention of liver diseases” (JIANGSU ATOM BIOSCIENCE AND PHARMACEUTICAL CO., LTD., priority 2018, dated 2023).
Marks after values point to notes of the source that are not given here.

Test system: zebrafish non-alcoholic fatty liver
Experiment: Fat reduction or elimination effect on thioacetamide-induced zebrafish non-alcoholic fatty liver (Oil Red O staining)
Format: in vivo
Details: for The total optical density of liver fat: mean ± SE, n = 10; for inhibition at 100 µM / inhibition at 200 µM: Danio rerio, read-out: Inhibition rate of liver steatosis
Method: 40 mM stock solution of test compounds 4, 5, 6, 7, 46, 67, 78, 85, 92 and 101 were prepared with DMSO, and stored in a refrigerator at −20° C. The positive control compound S-adenosylmethionine (SAM) was purchased from Aladdin Reagent (Shanghai) Co., Ltd., with the batch number F1523051, which was prepared into a 50 mM stock solution with DMSO. The control compound silymarin was purchased from Shanghai Dibai Biotechnology Co., Ltd., with the batch number EE09, which was prepared into a 40 mM stock solution with DMSO. Thioacetamide was purchased from Sigma-Aldrich, with the batch number BCBV3031, which wasprepared into a 1 M stock solution with DMSO. Oil Red O was purchased from Sigma-Aldrich, with the batch number SLBP5248V. 4% paraformaldehyde was purchased from Dingguo Biotechnology Co., Ltd., with the batch number 773001800. Propylene glycol was purchased from Sinopharm Chemical Reagent Co., Ltd., with the batch number 20170615.
The melanin allele mutant translucent Albino line zebrafish was reproduced in natural paired mating. The fish age was 3 days after fertilization, with 30 fish per experimental group.
The above zebrafish were raised in fish farming water at 28° C. (water quality: 200 mg instant sea salt was added to 1 L of reverse osmosis water, conductivity was 480-510 μS/cm; pH was 6.9-7.2; hardness was 53.7-71.6 mg/L CaCOs), the experimental animal use license number was: SYXK (Zhejiang) 2012-0171. Feeding management met the requirements of international AAALAC certification.
Three days after fertilization, the normal melanin allele mutant translucent Albino strain of zebrafish was randomly selected and placed in a six well plate with 30 fish per well (i.e. each experimental group), and then thioacetamide with the final concentration of 7 mM was used to treat zebrafish for 72 hours to establish the non-alcoholic fatty liver model.
The zebrafish were transferred to a six-well plate, with 30 fish per well (i.e., each experimental group) randomly. Non-alcoholic fatty liver model in zebrafish were induced by thioacetamide. 40 mM test compounds 4, 5, 6, 7, 46, 67, 78, 85, 92 and 101 were quantitatively transferred to a six-well plate, and diluted with water to the corresponding concentration. Test compounds 4, 5, 6 and 7 were formulated into two dose groups with final concentration of 100 μM and 200 μM, respectively; test compound 46 was formulated into a dose group with final concentration of 200 μM; test compounds 67, 78, 85, 92 and 101 were formulated into dose groups with a final concentration of 100 μM; 50 mM positive control SAM was formulated with water to a dose group with final concentration of 50 μM, and a 40 mM positive control silymarin was formulated with water to two concentration dose groups with final concentration of 100 μM and 200 μM. A normal control group (zebrafish treated with fish farming water) and a model control group were set at the same time, and the total volume of each well was 3 mL. Except for the normal control group, the other experimental groups were treated with thioacetamide for 72 hours and stained with Oil Red O. After staining, 10 zebrafish were randomly selected from each experimental group and photographed under a dissecting microscope, NIS-Elements D 3.10 advanced image processing software was used to perform image analysis and collect data, the total optical density (S) of zebrafish liver fat was statistically analyzed, and for the inhibitory effect of each experimental group on liver steatosis of zebrafishwas evaluated by the following formula, the results of statistical analysis were expressed as mean±SE: Inhibition rate of liver steatosis (%)=[S(model control group)−S(test compound group)]/[S(model control group)−S(normal control group)]×100%
Statistical analysis was performed using analysis of variance and Dunnett's T-test, and p<0.05 indicated a significant difference. […]

SMILES	Inhibition rate of liver steatosis (100 μM)	Therapeutic effect on non-alcoholic fatty liver of zebrafish (in words) (100 μM)	The total optical density of liver fat (100 μM) [Pixels]	Therapeutic effect on zebrafish non-alcoholic fatty liver (in words) (200 μM)	The total optical density of liver fat (200 μM) [Pixels]	inhibition at 100 µM (100 μM) [%]	inhibition at 200 µM (200 μM) [%]	Inhibition rate of liver steatosis (50 μM (SAM)) [%]	The total optical density of liver fat (50 μM (SAM)) [Pixels]
COc1cc([C@H]2Oc3cc([C@H]4Oc5cc(O)cc(O)c5C(O)[C@@H]4O)ccc3O[C@@H]2CO)ccc1O (stereo partly drawn) [Compound 5, (2R,3S)-2-{(2R,3R)-3-(4-hydroxy-3-methoxyphenyl)-2-hydroxymethyl-2,3-dihydrobenzo[b][1,4]dioxan-6-yl}chroman-3,4,5,7-tetraol]	85** %	significant therapeutic effects	18496 ± 862	significant therapeutic effect	18452 ± 795	84	86		
COc1cc([C@H]2Oc3cc([C@H]4Oc5cc(O)cc(O)c5C[C@@H]4O)ccc3O[C@@H]2CO)ccc1O [Compound 6, (2R,3S)-2-{(2R,3R)-3-(4-hydroxy-3-methoxyphenyl)-2-hydroxymethyl-2,3-dihydrobenzo[b][1,4]dioxan-6-yl}chroman-3,5,7-triol]		significant therapeutic effects	19868 ± 556	significant therapeutic effect	18157 ± 572	58	92		
COc1cc([C@H]2Oc3cc([C@H]4Oc5cc(O)cc(O)c5/C(=N/O)[C@@H]4O)ccc3O[C@@H]2CO)ccc1O [Compound 46, (2R,3S)-3,5,7-trihydroxy-2-{(2R,3R)-3-(4-hydroxy-3-methoxyphenyl)-2-hydroxymethyl-2,3-dihydrobenzo[b][1,4]dioxan-6-yl}chroman-4-one oxime]				significant therapeutic effect	19767 ± 814		60		
COc1cc(OC)c2c(c1)OC(c1cc(O)c3c(c1)OC(c1ccc(O)c(OC)c1)C(CO)O3)C(O)C2 (stereo not drawn) [Compound 78, 7-{(3-hydroxy-5,7-dimethoxychroman-2-yl)-2-(4-hydroxy-3-methoxyphenyl)-3-hydroxymethyl-2,3-dihydrobenzo[b][1,4]dioxane}-5-ol]		significant therapeutic effects	19665 ± 1330			62			
COc1cc(OC)c2c(c1)OC(c1cc(O)c3c(c1)OC(c1ccc(O)c(OC)c1)C(CO)O3)C(O)C2O (stereo not drawn) [Compound 92, 2-{8-hydroxy-3-(4-hydroxy-3-methoxyphenyl)-2-hydroxymethyl-2,3-dihydrobenzo[b][1,4]dioxan-6-yl}-5,7-dimethoxychroman-3,4-diol]		significant therapeutic effects	17836 ± 639			98			
COc1cc(C2Oc3cc(C4Oc5cc(F)cc(O)c5C(O)C4O)cc(O)c3OC2CO)ccc1O (stereo not drawn) [Compound 101, 7-fluoro-2-{8-hydroxy-3-(4-hydroxy-3-methoxyphenyl)-2-hydroxymethyl-2,3-dihydrobenzo[b][1,4]dioxan-6-yl}chroman-3,4,5-triol]		significant therapeutic effects	18090 ± 837			93			
C[S+](CC[C@H](N)C(=O)[O-])C[C@H]1O[C@@H](n2cnc3c(N)ncnc32)[C@H](O)[C@@H]1O (stereo partly drawn) [S-adenosylmethionine, reference compound]								89	18301 ± 783
